Measurements published in patent US5726153A, “Synthetic peptides for arterial imaging” (New England Deaconess Hospital Corporation, priority 1995, dated 1998).
“Also recorded” adds a separate entry of the source. Ends that are not written are not given here.

Tests used:
[1] = test system: balloon de-endothelialized healing abdominal aorta; test: Focal accumulation at vascular injury, onlay autoradiography of excised aorta, balloon de-endothelialized rabbit; assay type: in vivo, New Zealand white rabbits
Procedure: The peptides described herein were assayed for their ability to target sites of vascular injury as follows. Male New Zealand white rabbits (2 to 3 kg each) were obtained from ARI Breeding Labs, West Bridgewater, Mass. To induce vascular injury, their abdominal aortas were denuded of endothelium by a modification of the Baumgartner technique (Fischman et al., Arteriosclerosis 7:361, 1987). Briefly, after each animal was anesthetized with ketamine and ether or, alternatively, with xylazine (20 mg/ml) and Ketalar (50 mg/ml), the left femoral artery was isolated; a 4F Fogarty embolectomy catheter (Model 12-040-4F, Edwards Laboratories Incorporated, Santa Anna, Calif.) was introduced through an arterotomy in the femoral artery and was advanced under fluoroscopic visualization to the level of the diaphragm. The catheter was inflated to a pressure of about 3 psi above the balloon inflation pressure with radiographic contrast medium (Conray, Mallinkrodt, St. Louis, Mo.). Three passes were made through the abdominal aorta with the inflated catheter to remove the aortic endothelium before removal of the catheter, ligation of the femoral artery, and closure of the wound. The animals were allowed to heal for a period of 4 to 5 weeks before injection of the labelled synthetic peptides.
(§1) Each labelled synthetic peptide preparation (containing, for example, 150 to 400 or more μCi of ^125 I-labelled peptide) in column elution buffer was injected into the marginal ear vein of the ballooned and healing New Zealand white rabbits or WHHL rabbits. Serial blood samples were obtained from the opposite ear during the ensuing 0-24 hours and were analyzed for radioactivity. The labelled peptide concentrations in the blood samples that were withdrawn over the first 10 minutes after injection were extrapolated to zero time to determine the time zero radioactivity in the calculation of average plasma radioactivity. […] Peptides SP15a, SP17, SP19a, SP21a, SP28, SP34a, and SP30 were cleared rapidly from the plasma with half-lives of about one minute or less; after one hour, the plasma levels were less than 10% of the injected dose and fell by an additional 1% over the next three hours. Peptides SP15a, SP17, SP21a, SP28, SP34a, and SP30 leveled off to a plasma level of 3-6%; peptide SP19a cleared more quickly and leveled off to a concentration of 0.3% (at four hours).
One to twenty-four hours after injection of the labelled synthetic peptide preparations, each animal was injected intravenously with 4 ml of a 0.5% solution of Evans blue dye (Allied Chemical Company, National Aniline Division, NY, N.Y.) which stains areas of de-endothelialized aorta blue. After 30 minutes, the animal was sacrificed by a lethal injection of pentobarbital. After sacrifice, the aorta was removed completely, washed in saline, and fixed in 10% trichloroacetic acid.
The washed and fixed aortas from the animals that had been injected with radiolabelled synthetic peptide were opened along the ventral surface. These segments were then pinned out, fixed for 2 hours in 10% trichloroacetic acid, and photographed. The fixed, opened vessels were then covered with a single layer of plastic (Saran) wrap, placed on high speed x-ray film (Kodak Orthofilm OH-1), and stored for 3 days to 4 weeks in a Kodak "X-Omatic cassette" (24×30 cm) at -70° C. before development in a 90 second X-OMAT.

[2] = Plasma decay of 125I-labelled synthetic peptide after intravenous injection; assay type: in vivo, rabbit; conditions: for plasma level after one hour / plasma level leveled off to: 125I-labelled peptide, intravenous, rabbit; for additional fall of plasma level over the next three hours: from one to four hours after injection
Procedure: as §1

anti-SP-4 antiserum = test: ELISA cross-reactivity: peptide-coated plates treated with anti-SP-4 antiserum; assay type: binding, rabbit; conditions: FIG. 4
Procedure: To produce anti-synthetic peptide antisera, purified synthetic peptide was dissolved in PBS, pH 7.4 at a concentration of 1 mg/ml. The peptide solution was mixed with an equal volume of complete Freund's adjuvant and vortexed thoroughly until a thick emulsion was produced. New Zealand White rabbits (Millbrook Farms, Amherst, Mass.) were injected with a total of 0.5 mg synthetic peptide administered subcutaneously in the four dorsal quadrants. The rabbits were given a boost (injected at the same sites) with 0.5 mg peptide emulsified in incomplete Freund's adjuvant 2-3 weeks later. Eight to ten days after the first boost, the animals were given a second, identical boost and were bled of 30 ml 8 to 10 days later.
To test for immunological cross-reactivity microtiter plates (Immulon II Dynatech Labs, Chantilly, Va.) were coated with the purified synthetic peptide or LDL by an overnight incubation at 4° C. with 100 ng peptide per well in 50 mM carbonate, pH 9.6, and blocked for nonspecific binding with an additional overnight incubation with phosphate-buffered saline, pH 7.4 (PBS), 1% bovine serum albumin (BSA). Control wells were coated with BSA alone. After washing twice with PBS, the wells were filled with serial dilutions (1:10 to 1:100,000 made in PBS, 3% BSA) of a rabbit polyclonal antibody generated against the synthetic peptide(s) and incubated for 45 minutes at room temperature. Following thorough washing (3× with PBS, 0.1% BSA), the wells were filled with a 1:2000 dilution of goat anti-rabbit IgG-horseradish peroxidate conjugate (Atlantic Antibodies, Scarborough, Me.). After a final wash, the wells were filled with 3,3'-5,5'- tetramethybenzidine (TMB) microwell peroxidase substrate (Kirkegaard and Perry Labs, Gaithersburg, Md.) and read at 650 nm every two minutes on an ELISA-5 automated plate reader (Physica, New York, N.Y.). Results (see, e.g., FIGS. 4 and 5) are expressed as the initial velocity of substrate conversion (change in OD650 /hr), which is determined by a linear regression of 15 data points per well. Each data point represents the average of three measured data points from the same plate, run at the same time.

[3] = test system: atherosclerotic lesions of the aorta; test: Focal accumulation at atherosclerotic lesions, onlay autoradiography of excised aorta, WHHL rabbit; assay type: in vivo, Watanabe Heritable Hyperlipemic (WHHL) rabbits; conditions: FIG. 7
Procedure: Watanabe Heritable Hyperlipemic (WHHL) rabbits were also used as animal models. They were obtained from the WHHL Rabbit Program of the National Heart Lung and Blood Institute (Bethesda, Md.) at about 3 months of age and weighing about 1.5 kg. The animals were raised until they were 3-4 kg in weight.
as §1, with “hours). […]” for “hours).”

## Ac-YRALVDTLKFVTEQAKGA-NH2 [SP-19a, CH3 CONH-Tyr-Arg-Ala-Leu-Val-Asp-Thr-Leu-Lys-Phe-Val-Thr-Glu-Gln-Ala-Lys-Gly-Ala-CONH2]
[1]
  localization of 125I-labelled peptide on onlay autoradiograph of the aorta: accumulated focally at the leading edges of regenerating endothelial tissue
[2]
  plasma level after one hour: less than 10 % of the injected dose
  additional fall of plasma level over the next three hours: 1%
[2]; at four hours
  plasma concentration leveled off to: 0.3%

## CH3 CONH-Tyr-Arg-Ala-Leu-Val-Asp-Thr-Leu-Lys-CONH2 (Ac-YRALVDTLK-NH2) [SP-14A, modified counterpart of SP-14]
anti-SP-4 antiserum
  binding of anti-SP-4 antiserum to the peptide: bind

## NH2 -Tyr-Arg-Ala-Leu-Val-Asp-Thr-Leu-Lys-Phe-Val-Thr-Gln-Ala-Glu-Gly-Ala-Lys-CONH2 (H-YRALVDTLKFVTQAEGAK-NH2) [SP-4]
[3]
  localization of 125I-labelled peptide on onlay autoradiograph of the aorta: clearly correspond to the radioactively-labelled lesions; also recorded: localizes at atherosclerotic lesions
anti-SP-4 antiserum
  binding of anti-SP-4 antiserum to the peptide: bind
[1]
  localization of 125I-labelled peptide on onlay autoradiograph of the aorta: clear-cut localization of the synthetic peptide on the image at the healing (re-endothelizing) edge of the aortic lesions; also recorded: labelled healing lesions

## YVPGVGVPGVGVPGVGVPGVG-NH2 [SP-30, H2 N-Tyr-Val-Pro-Gly-Val-Gly-Val-Pro-Gly-Val-Gly-Val-Pro-Gly-Val-Gly-Val-pro- Gly-Val-Gly-CONH2]
[1]
  localization of 125I-labelled peptide on onlay autoradiograph of the aorta: accumulated focally at the leading edges of regenerating endothelial tissue
[2]
  plasma level leveled off to: 3-6%
  plasma level after one hour: less than 10 % of the injected dose
  additional fall of plasma level over the next three hours: 1%

## Ac-YVLDEFREKLNEELEALKQK-NH2 [SP-34a]
[1]
  localization of 125I-labelled peptide on onlay autoradiograph of the aorta: accumulated focally at the leading edges of regenerating endothelial tissue
[2]
  plasma level leveled off to: 3-6%
  plasma level after one hour: less than 10 % of the injected dose
  additional fall of plasma level over the next three hours: 1%

## YAALDLNAVANKIADFEL-NH2 [SP-17, H2 N-Tyr-Ala-Ala-Leu-Asp-Leu-Asn-Ala-Val-Ala-Asn-Lys-Ile-Ala-Asp-Phe-Glu-Leu- CONH2]
[1]
  localization of 125I-labelled peptide on onlay autoradiograph of the aorta: accumulated focally at the leading edges of regenerating endothelial tissue
[2]
  plasma level leveled off to: 3-6%
  plasma level after one hour: less than 10 % of the injected dose
  additional fall of plasma level over the next three hours: 1%

## YVGVAPGVGVAPGVGVAPG [SP-28, H2 N-Tyr-Val-Gly-Val-Ala-Pro-Gly-Val-Gly-Val-Ala-Pro-Gly-Val-Gly-Val-Ala-Pro- Gly-OH]
[1]
  localization of 125I-labelled peptide on onlay autoradiograph of the aorta: accumulated focally at the leading edges of regenerating endothelial tissue
[2]
  plasma level leveled off to: 3-6%
  plasma level after one hour: less than 10 % of the injected dose
  additional fall of plasma level over the next three hours: 1%

## CH3 CONH-Tyr-Arg-Ala-Leu-Val-Asp-Thr-Leu-Lys-Phe-Val-Thr-Gln-Ala-Glu-Gly-Ala-Lys-CONH2 (Ac-YRALVDTLKFVTQAEGAK-NH2) [SP-4A, modified counterpart of SP-4]
anti-SP-4 antiserum
  binding of anti-SP-4 antiserum to the peptide: bind

## H2 N-Tyr-Lys-Leu-Ala-Leu-Glu-Ala-Ala-Arg-Leu-Leu-Ala-Asn-Ala-Glu-Gly-Ala-Lys- CONH2 (H-YKLALEAARLLANAEGAK-NH2) [SP-8, conservatively substituted SP-4]
anti-SP-4 antiserum
  binding of anti-SP-4 antiserum to the peptide: bind

## H2 N-Tyr-Lys-Leu-Ala-Leu-Glu-Ala-Ala-Arg-Leu-Leu-Ala-Asp-Ala-Glu-Gly-Ala-Lys- CONH2 (H-YKLALEAARLLADAEGAK-NH2) [SP-6, conservatively substituted SP-4]
anti-SP-4 antiserum
  binding of anti-SP-4 antiserum to the peptide: bind

## CH3 CONH-Tyr-Arg-Ala-Leu-Val-Asp-Tyr-Leu-Lys-Phe-Val-Thr-Gln-Leu-CONH2 (Ac-YRALVDYLKFVTQL-NH2) [SP-12A, modified counterpart of SP-12]
anti-SP-4 antiserum
  binding of anti-SP-4 antiserum to the peptide: bind

## Ac-YRALVDTEFKVKQEAGAK-NH2 [SP-21a, CH3 CONH-Tyr-Arg-Ala-Leu-Val-Asp-Thr-Glu-Phe-Lys-Val-Lys-Gln-Glu-Ala-Gly-Ala-Lys-CONH2]
[1]
  localization of 125I-labelled peptide on onlay autoradiograph of the aorta: accumulated focally at the leading edges of regenerating endothelial tissue
[2]
  plasma level leveled off to: 3-6%
  plasma level after one hour: less than 10 % of the injected dose
  additional fall of plasma level over the next three hours: 1%

## Ac-YAKFRETLEDTRDRMY-NH2 [SP-15a, CH3 CONH-Tyr-Ala-Lys-Phe-Arg-Glu-Thr-Leu-Glu-Asp-Thr-Arg-Asp-Arg-Met-Tyr-CONH2]
[1]
  localization of 125I-labelled peptide on onlay autoradiograph of the aorta: accumulated focally at the leading edges of regenerating endothelial tissue
[2]
  plasma level leveled off to: 3-6%
  plasma level after one hour: less than 10 % of the injected dose
  additional fall of plasma level over the next three hours: 1%

## CH3 CONH-Tyr-Lys-Leu-Ala-Leu-Glu-Ala-Ala-Arg-Leu-Leu-Ala-Asn-Ala-Glu-Gly-Ala-Lys-CONH2 (Ac-YKLALEAARLLANAEGAK-NH2) [SP-8A, modified counterpart of SP-8]
anti-SP-4 antiserum
  binding of anti-SP-4 antiserum to the peptide: bind

## CH3 CONH-Tyr-Lys-Leu-Ala-Leu-Glu-Ala-Ala-Arg-Leu-Leu-Ala-Asp-Ala-Glu-Gly-Ala-Lys-CONH2 (Ac-YKLALEAARLLADAEGAK-NH2) [SP-6A, modified counterpart of SP-6]
anti-SP-4 antiserum
  binding of anti-SP-4 antiserum to the peptide: bind
